We go through 18 molecules from patent US9169254B2, “Spiroimidazolone derivative” (Chugai Seiyaku Kabushiki Kaisha, priority 2009, dated 2015).

The structures appear in SMILES notation.

This test concerns the target T1, human PTH1 receptor (Homo sapiens, UniProt Q03431).
T1 sequence (Q03431 27-593): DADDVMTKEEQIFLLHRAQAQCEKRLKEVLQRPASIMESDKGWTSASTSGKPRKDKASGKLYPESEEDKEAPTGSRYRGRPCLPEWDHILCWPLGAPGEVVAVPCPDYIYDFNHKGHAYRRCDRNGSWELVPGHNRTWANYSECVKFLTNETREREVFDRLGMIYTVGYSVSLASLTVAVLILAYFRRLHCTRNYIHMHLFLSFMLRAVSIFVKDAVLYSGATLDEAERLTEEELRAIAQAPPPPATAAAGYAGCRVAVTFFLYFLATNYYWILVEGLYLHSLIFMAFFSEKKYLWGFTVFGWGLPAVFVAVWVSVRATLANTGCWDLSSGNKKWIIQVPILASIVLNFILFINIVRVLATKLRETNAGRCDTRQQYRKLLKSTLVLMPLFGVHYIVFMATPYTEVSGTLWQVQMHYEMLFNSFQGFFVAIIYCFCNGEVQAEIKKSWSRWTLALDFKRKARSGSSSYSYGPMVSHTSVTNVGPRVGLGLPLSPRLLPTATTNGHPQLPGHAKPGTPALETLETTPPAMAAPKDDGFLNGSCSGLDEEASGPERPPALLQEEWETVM
Briefly: In vitro cAMP signal activity in HKRK-B7 cells (LLC-PK1 cells overexpressing the human PTH1 receptor). It is filed as cell-based. Particulars: HKRK-B7 cells; compound at 1×10^−3 M; cAMP produced as percentage of that produced by hPTH(1-34) at 100 nM.
As for `[2H]C([2H])([2H])C([2H])([2H])Oc1ccc(C2=NC3(CCN(S(=O)(=O)/C=C/c4c(C)cc(C(=O)N5CCC(O)(CF)CC5)cc4C)CC3)C(=O)N2)cc1C(F)(F)F` [Compound 1253, 2-(4-[1,1,2,2,2-^2H5]ethoxy-3-trifluoromethyl-phenyl)-8-{(E)-2-[4-(4-fluoromethyl-4-hydroxy-piperidine-1-carbonyl)-2,6-dimethyl-phenyl]-ethenesulfonyl}-1,3,8-triaza-spiro[4.5]dec-1-en-4-one], the “cAMP production activity (%)” value is given as 81%.
For the molecule `Cc1cc(C2=NC3(CCN(S(=O)(=O)/C=C/c4c(C)cc(C(=O)N5CCC(O)(CF)CC5)cc4C)CC3)C(=O)N2)ccc1C(F)(F)F` [Compound 1254, 8-{(E)-2-[4-(4-fluoromethyl-4-hydroxy-piperidine-1-carbonyl)-2,6-dimethyl-phenyl]-ethenesulfonyl}-2-(3-methyl-4-trifluoromethyl-phenyl)-1,3,8-triaza-spiro[4.5]dec-1-en-4-one], the “cAMP production activity (%)” value is on record as 87%.
With `Cc1cc(C(=O)N2CCC(O)(CF)CC2)cc(C)c1/C=C/S(=O)(=O)N1CCC2(CC1)N=C(c1ccc(C(F)F)c(F)c1)NC2=O` [Compound 1255, 2-(4-difluoromethyl-3-fluoro-phenyl)-8-{(E)-2-[4-(4-fluoromethyl-4-hydroxy-piperidine-1-carbonyl)-2,6-dimethyl-phenyl]-ethenesulfonyl}-1,3,8-triaza-spiro[4.5]dec-1-en-4-one] the figure was 66%.
Regarding `Cc1cc(C(=O)N2CCC(O)(CF)CC2)cc(C)c1/C=C/S(=O)(=O)N1CCC2(CC1)N=C(c1ccc(F)c(C(F)F)c1)NC2=O` [Compound 1256, 2-(3-difluoromethyl-4-fluoro-phenyl)-8-{(E)-2-[4-(4-fluoromethyl-4-hydroxy-piperidine-1-carbonyl)-2,6-dimethyl-phenyl]-ethenesulfonyl}-1,3,8-triaza-spiro[4.5]dec-1-en-4-one], the “cAMP production activity (%)” value was determined as 72%.
With `Cc1cc(C(=O)N2CCC(O)(CF)CC2)cc(C)c1/C=C/S(=O)(=O)N1CCC2(CC1)N=C(c1ccc(Cl)c(Cl)c1)NC2=O` [Compound 1257, 2-(3,4-dichloro-phenyl)-8-{(E)-2-[4-(4-fluoromethyl-4-hydroxy-piperidine-1-carbonyl)-2,6-dimethyl-phenyl]-ethenesulfonyl}-1,3,8-triaza-spiro[4.5]dec-1-en-4-one] the figure was 98%.
With `Cc1cc(C2=NC3(CCN(S(=O)(=O)/C=C/c4c(C)cc(C(=O)N5CCC(O)(CF)CC5)cc4C)CC3)C(=O)N2)ccc1OC(F)(F)F` [Compound 1258, 8-{(E)-2-[4-(4-fluoromethyl-4-hydroxy-piperidine-1-carbonyl)-2,6-dimethyl-phenyl]-ethenesulfonyl}-2-(3-methyl-4-trifluoromethoxy-phenyl)-1,3,8-triaza-spiro[4.5]dec-1-en-4-one], the “cAMP production activity (%)” value came to 116%.
For `Cc1cc(C(F)(F)F)ccc1C1=NC2(CCN(S(=O)(=O)/C=C/c3c(C)cc(C(=O)N4CCC(O)(CF)CC4)cc3C)CC2)C(=O)N1` [Compound 1259, 8-{(E)-2-[4-(4-fluoromethyl-4-hydroxy-piperidine-1-carbonyl)-2,6-dimethyl-phenyl]-ethenesulfonyl}-2-(2-methyl-4-trifluoromethyl-phenyl)-1,3,8-triaza-spiro[4.5]dec-1-en-4-one], the “cAMP production activity (%)” value is recorded as 101%.
Consider `Cc1cc(C(=O)N2CCC(O)(CF)CC2)cc(C)c1/C=C/S(=O)(=O)N1CCC2(CC1)N=C(c1ccc(OCC(F)(F)F)c(F)c1)NC2=O` [Compound 1260, 8-{(E)-2-[4-(4-fluoromethyl-4-hydroxy-piperidine-1-carbonyl)-2,6-dimethyl-phenyl]-ethenesulfonyl}-2-[3-fluoro-4-(2,2,2-trifluoro-ethoxy)-phenyl]-1,3,8-triaza-spiro[4.5]dec-1-en-4-one], for which the “cAMP production activity (%)” value is 81%.
With `[2H]C([2H])([2H])C([2H])([2H])C([2H])([2H])C([2H])([2H])Oc1ccc(C2=NC3(CCN(S(=O)(=O)/C=C/c4c(C)cc(C(=O)N5CCC(O)(CF)CC5)cc4C)CC3)C(=O)N2)cc1C(F)(F)F` [Compound 1261, 2-(4-[1,1,2,2,3,3,4,4,4-^2H9]butoxy-3-trifluoromethyl-phenyl)-8-{(E)-2-[4-(4-fluoromethyl-4-hydroxy-piperidine-1-carbonyl)-2,6-dimethyl-phenyl]-ethenesulfonyl}-1,3,8-triaza-spiro[4.5]dec-1-en-4-one] the figure was 99%.
Regarding `[2H]C([2H])([2H])C([2H])(Oc1ccc(C2=NC3(CCN(S(=O)(=O)/C=C/c4c(C)cc(C(=O)N5CCC(O)(CF)CC5)cc4C)CC3)C(=O)N2)cc1C(F)(F)F)C([2H])([2H])[2H]` [Compound 1262, 8-{(E)-2-[4-(4-fluoromethyl-4-hydroxy-piperidine-1-carbonyl)-2,6-dimethyl-phenyl]-ethenesulfonyl}-2-(4-[1,2,2,2,2,2,2-^2H7]isopropoxy-3-trifluoromethyl-phenyl)-1,3,8-triaza-spiro[4.5]dec-1-en-4-one], the “cAMP production activity (%)” value was found to be 90%.
With `Cc1cc(C(=O)N2CCC(O)(CF)CC2)cc(C)c1/C=C/S(=O)(=O)N1CCC2(CC1)N=C(c1ccc(F)c(OCCCC(F)(F)C(F)(F)F)c1)NC2=O` [Compound 1263, 8-{(E)-2-[4-(4-fluoromethyl-4-hydroxy-piperidine-1-carbonyl)-2,6-dimethyl-phenyl]-ethenesulfonyl}-2-[4-fluoro-3-(4,4,5,5,5-pentafluoro-pentyloxy)-phenyl]-1,3,8-triaza-spiro[4.5]dec-1-en-4-one] the figure was 73%; with `Cc1cc(C(=O)N2CCC(O)(CF)CC2)cc(C)c1/C=C/S(=O)(=O)N1CCC2(CC1)N=C(c1ccc(F)c(OCCCF)c1)NC2=O` [Compound 1264, 2-[4-fluoro-3-(3-fluoro-propoxy)-phenyl]-8-{(E)-2-[4-(4-fluoromethyl-4-hydroxy-piperidine-1-carbonyl)-2,6-dimethyl-phenyl]-ethenesulfonyl}-1,3,8-triaza-spiro[4.5]dec-1-en-4-one], 77%.
Next, `Cc1cc(C(=O)N2CCC(O)(CF)CC2)cc(C)c1/C=C/S(=O)(=O)N1CCC2(CC1)N=C(c1ccc(OC(C)(C)C(F)(F)F)c(C(F)(F)F)c1)NC2=O` [Compound 1265, 8-{(E)-2-[4-(4-fluoromethyl-4-hydroxy-piperidine-1-carbonyl)-2,6-dimethyl-phenyl]-ethenesulfonyl}-2-[4-(2,2,2-trifluoro-1,1-dimethyl-ethoxy)-3-trifluoromethyl-phenyl]-1,3,8-triaza-spiro[4.5]dec-1-en-4-one]: 89%.
With `Cc1cc(C(=O)N2CCC(O)(CF)CC2)cc(C)c1/C=C/S(=O)(=O)N1CCC2(CC1)N=C(c1ccc(C(F)(F)F)c(OC(C)(C)C(F)(F)F)c1)NC2=O` [Compound 1266, 8-{(E)-2-[4-(4-fluoromethyl-4-hydroxy-piperidine-1-carbonyl)-2,6-dimethyl-phenyl]-ethenesulfonyl}-2-[3-(2,2,2-trifluoro-1,1-dimethyl-ethoxy)-4-trifluoromethyl-phenyl]-1,3,8-triaza-spiro[4.5]dec-1-en-4-one] the figure was 96%; with `Cc1cc(C(=O)N2CCC(O)(CF)CC2)cc(C)c1/C=C/S(=O)(=O)N1CCC2(CC1)N=C(c1cccc(C(C)(F)F)c1)NC2=O` [Compound 1267, 2-[3-(1,1-difluoro-ethyl)-phenyl]-8-{(E)-2-[4-(4-fluoromethyl-4-hydroxy-piperidine-1-carbonyl)-2,6-dimethyl-phenyl]-ethenesulfonyl}-1,3,8-triaza-spiro[4.5]dec-1-en-4-one], 74%; with `Cc1cc(C(=O)N2CCC(O)(CF)CC2)cc(C)c1/C=C/S(=O)(=O)N1CCC2(CC1)N=C(c1ccc3cc[nH]c3c1)NC2=O` [Compound 1268, 8-{(E)-2-[4-(4-fluoromethyl-4-hydroxy-piperidine-1-carbonyl)-2,6-dimethyl-phenyl]-ethenesulfonyl}-2-(1H-indol-6-yl)-1,3,8-triaza-spiro[4.5]dec-1-en-4-one], 33%.
Take `Cc1cc(C(=O)N2CCC(O)(CF)CC2)cc(C)c1/C=C/S(=O)(=O)N1CCC2(CC1)N=C(c1ccc(OC(F)(F)F)cc1)NC2=O` [Compound 1269, 8-{(E)-2-[4-(4-fluoromethyl-4-hydroxy-piperidine-1-carbonyl)-2,6-dimethyl-phenyl]-ethenesulfonyl}-2-(4-trifluoromethoxy-phenyl)-1,3,8-triaza-spiro[4.5]dec-1-en-4-one]: the “cAMP production activity (%)” value is 92%.
In the case of `Cc1cc(C(=O)N2CCC(O)(CF)CC2)cc(C)c1/C=C/S(=O)(=O)N1CCC2(CC1)N=C(c1ccc(Cl)c(OCC(F)(F)C(F)(F)F)c1)NC2=O` [Compound 1270, 2-[4-chloro-3-(2,2,3,3,3-pentafluoro-propoxy)-phenyl]-8-{(E)-2-[4-(4-fluoromethyl-4-hydroxy-piperidine-1-carbonyl)-2,6-dimethyl-phenyl]-ethenesulfonyl}-1,3,8-triaza-spiro[4.5]dec-1-en-4-one], the “cAMP production activity (%)” value was determined as 61%.
